Data from the supplement of paper PMC10307832.

Assays:
Assay in all cases: relative viability (nuclei count vs DMSO), 5 days (fraction); higher = more cells survive
[1] = compound: C[C@@H](N)c1ccc(C(=O)Nc2ccnc3[nH]ccc23)cc1 + O=C(c1cc(Cc2n[nH]c(=O)c3ccccc23)ccc1F)N1CCN(C(=O)C2CC2)CC1 [Olaparib] (partner 8 µM)
How it was run: (§1)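 Lung cancer cell lines, seeded in 1536-well plates, were treated the following day by pin tool with a single drug or with five library-drug doses (not always all listed) in √10 steps on top of a fixed anchor-drug dose. Cells were fixed and nuclei stained in one step after 5 days, and nuclei were counted. Relative viability is the nuclei count for treated wells divided by that for vehicle wells, reported as medians of duplicate plates.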

[2] = compound: C[C@@H](N)c1ccc(C(=O)Nc2ccnc3[nH]ccc23)cc1 + N=C(N)NC(=N)NCCc1ccccc1 [Phenformin] (partner 250 µM)
How it was run: as §1

[3] = compound: C[C@@H](N)c1ccc(C(=O)Nc2ccnc3[nH]ccc23)cc1 + Nc1nc2[nH]cc(CCc3ccc(C(=O)N[C@@H](CCC(=O)O)C(=O)O)cc3)c2c(=O)[nH]1 [Pemetrexed] (partner 0.2 µM)
How it was run: as §1

[4] = compound: C1CNCCC1C2=CC(=NN2)C3=CC=NC=C3 + O=C(c1cc(Cc2n[nH]c(=O)c3ccccc23)ccc1F)N1CCN(C(=O)C2CC2)CC1 [Olaparib] (partner 8 µM)
How it was run: as §1

Cell Line	relative viability ([1]; first compound 0.04 µM)	relative viability ([1]; first compound 0.1265 µM)	relative viability ([1]; first compound 0.4 µM)	relative viability ([1]; first compound 1.265 µM)	relative viability ([1]; first compound 4 µM)	relative viability ([2]; first compound 0.04 µM)	relative viability ([2]; first compound 0.1265 µM)	relative viability ([2]; first compound 0.4 µM)	relative viability ([2]; first compound 1.265 µM)	relative viability ([2]; first compound 4 µM)	relative viability ([3]; first compound 0.04 µM)	relative viability ([3]; first compound 0.1265 µM)	relative viability ([3]; first compound 0.4 µM)	relative viability ([3]; first compound 1.265 µM)	relative viability ([3]; first compound 4 µM)	relative viability ([4]; first compound 0.08 µM)	relative viability ([4]; first compound 2.53 µM)	relative viability ([4]; first compound 8 µM)	relative viability ([4]; first compound 0.8 µM)
SW 900	1.03	0.918	1.21	0.883	1.08	0.852	0.687	0.512	0.618	0.531	0.465	0.478	0.475	0.5	0.474	1.02	0.868	0.861	
NCI-H1944	0.453	0.396	0.434	0.432	0.401	0.157	0.216	0.153	0.165	0.138	0.594	0.605	0.73	0.596	0.611	0.403	0.389	0.384	0.384
NCI-H727	0.64	0.738	0.8	0.771	0.742	0.583	0.653	0.669	0.748	0.756						0.76	0.669	0.69	0.798
NCI-H1650	0.81	0.943	0.812	0.822	0.763	0.434	0.463	0.345	0.331	0.421	0.443	0.394	0.399	0.349	0.355	0.613	0.795	0.69	0.948
HCC-827		0.764	0.834	0.739	0.542	0.424	0.462	0.423	0.394	0.406		0.272	0.268	0.292	0.264	0.597	0.665	0.743	0.0303
HCC-366	0.345	0.368	0.371	0.447	0.389	0.583	0.66	0.617		0.57	0.154	0.148	0.163	0.241	0.184	0.341	0.498	0.36	0.412
HARA	1.02	0.907	1.32	0.966	0.819		0.481	0.495		0.355	0.191	0.209	0.257	0.249	0.236	0.762	1.21	1.11	1.27
NCI-H322M	0.862	0.944	0.901	1.01	0.979	0.874	0.886	0.871		0.72	0.79	0.654	0.588	0.48	0.602	0.73	0.844	0.923	0.716
LXF-289	1.12	1.05	1.16	1.23	0.901	0.509	0.524	0.525	0.569	0.496	0.861	0.909	0.948	0.929	0.79	1.04	0.968	1.05	1.16
PC-3 [JPC-3]	0.968	1.22	1.13	1.23	1.01	0.473	0.495	0.477	0.474	0.456	1.12	1.07	1.16	1.07	0.88	1.09	1.11	1.15	1.24
CAL-12T	0.702	0.882	0.815	0.841	0.724	0.674	0.609	0.665	0.538	0.56	1.23	1.39	1.43	1.49	1.27	0.676	0.753	0.719	0.665
COR-L 105	0.605	0.636	0.763	0.717	0.564	0.446	0.492	0.523	0.423	0.377	1	1.12	0.94	0.98	0.619	0.7	0.675	0.746	0.721
NCI-H2347	0.53	0.579	0.534	0.566	0.461	0.502	0.532	0.546		0.584	0.41	0.424	0.452	0.388	0.403	0.534	0.477	0.571	0.514
NCI-H2126	0.945	0.946	0.915	0.988	0.948	0.588	0.558	0.592	0.505	0.502	0.697	0.684	0.764	0.57	0.738	0.933	0.923	0.939	0.875
NCI-H838	0.789	0.826	0.658	0.397	0.283	0.378	0.527	0.501	0.247	0.221	0.259	0.244	0.24	0.205	0.181	0.708	0.815	0.799	0.795
A549	0.303	0.251	0.575	0.0626	0.465	0.0717	0.256	0.279		0.164						0.345	0.435	0.367	0.303
NCI-H2342	0.454	0.469	0.405	0.481	0.388	0.718	0.731	0.676	0.718	0.622	0.781	0.803	0.792	0.847	0.794	0.419	0.486	0.491	0.388
NCI-H1623						0.637	0.528	0.415	0.29	0.622									
SK-LU-1	0.459	0.446	0.436	0.321	0.376	0.433	0.611	0.488	0.365	0.405	0.952	0.892	0.933	0.809	0.558	0.437	0.467	0.439	0.425
